Test results taken from patent EP1311531B1, “STEROID DERIVED ANTIBIOTICS” (Brigham Young University, priority 2000, dated 2002).
≈ marks a conversion by molar mass, not a printed value.

Tests used:
[1] = test system: Escherichia coli ATCC 25922; assay: Sensitization to erythromycin, novobiocin or rifampicin (permeabilization, FIC); details: for MBC: Escherichia coli, ATCC25922; for concentration required to lower the MIC of erythromycin from 60 µg/mL to 1 µg/mL: Table 5, E. coli (ATCC 25922), with erythromycin; for FIC / concentration required for bacterial growth inhibition: Table 13, with rifampicin (order of b151), Escherichia coli ATCC 25922
[2] = test system: Streptococcus pyogenes ATCC 19615; assay: MIC and MBC measurement; format: cell-based; details: ATCC19615, Table 10
Protocol: (§1) General: Microorganisms. Reference strains were purchased from the American Type Culture Collection (Rockville, MD) or Bactrol disks from Difeo Laboratories (Detroit, MI). […] Bacterial strains were maintained on Mueller-Hinton agar plates, and Candida albicans was maintained on Sabouraud Dextrose agar plates.
(§2) Aliquots (20 mL) of the homogeneous solution were then poured in sterile plastic petri dishes (100 x 15 mm, Fisher Scientific). Solutions of compounds were made by dissolving the HCl salt of the respective compound into an appropriate amount of deionized and sterilized water followed by microfiltration.
(§3) Aliquots of 1 mL of the suspension were added to test tubes containing 1 mL TSB and incrementally varied concentrations of cholic acid derivatives and/or erythromycin or novobiocin. […] Additionally, an alliquot from each of the samples showing no measurable turbidity was subcultured on TSA plates (alliquots were diluted to provide fewer than 300 CFU). Colonies that grew on the subculture after overnight incubation were counted and the number of CFU/mL in the samples were calculated. The calculated values were compared to the number of CFU/mL in the original inoculum.

[3] = test system: Candida albicans ATCC 90028; assay: MIC and MBC measurement; format: cell-based; details: ATCC90028, Table 10
Protocol: as §1, §2, §3

[4] = test system: Klebsiella pneumonia ATCC 13883; assay: MIC and MBC measurement; format: cell-based; details: Klebsiella pneumoniae, ATCC13883
Protocol: as §1, §2, §3

[5] = test system: Pseudomonas aeruginosa ATCC 27853; assay: MIC and MBC measurement; format: cell-based
Protocol: as §1, §2, §3

[6] = test system: Salmonella typhimurium ATCC 14028; assay: MIC and MBC measurement; format: cell-based; details: Salmonella enterica
Protocol: as §1, §2, §3

[7] = Minimum hemolytic concentration (MHC); format: cell-based; details: Table 10
Protocol: Minimum inhibition concentrations (MIC) and minimum hemolytic concentrations (MHC) were measured as described in Li et al., Antimicrob. Agents. Chemother., 1999, 43, 1347. […]

[8] = test system: Salmonella typhimurium ATCC 14028; assay: Sensitization to erythromycin, novobiocin or rifampicin (permeabilization, FIC); format: cell-based; details: Table 13; with rifampicin (order of b151); Salmonella typhimurium ATCC 14028^b (footnote b not given)
[9] = test system: outer membrane of Gram-negative bacteria; assay: Luciferin/luciferase luminescence assay of membrane permeabilization; format: cell-based, E. coli; details: Escherichia coli; permeabilization of the outer membrane allowing luciferin to enter the cell; read-out: half maximum luminescence
Protocol: Using a technique described by J. M. Shupp, S. E. Travis, L. B. Price, R. F. Shand, P. Keim, RAPID BACTERIAL PERMEABILIZATION REAGENT USEFUL FOR ENZYME ASSAYS, Biotechniques, 1995, vol.
In this assay, E. coli containing an inducible luciferase coding plasmid was incubated with the inducing agent […], then treated with a lysis buffer containing either PMB or one of the cholic acid derivatives, and Triton X-100. Luciferin and ATP were then added. […] The concentrations of the membrane disrupting agents (PMB and the cholic acid derivatives) were varied, and the resulting luminescence was measured.

[10] = ATCC27853, Table 6, P. aureginosa (ATCC 27853)
[11] = ATCC27853, Table 10, Pseudomonas aeruginosa ATCC 27853

MIC [2] | MIC [3] | MIC [4] | MIC [5, 11] | MIC [6] | Compound | MBC [1] | concentration required to lower the MIC of erythromycin from 60 µg/mL to 1 µg/mL [1] | FIC [1] | concentration required for bacterial growth inhibition [1] | MBC [2] | MBC [3] | MBC [4] | MBC [5, 10] | MIC [5, 10] | MBC [5, 11] | MBC [6] | MHC [7] | FIC [8] | concentration required for bacterial growth inhibition [8] | EC50 [9]
3 µg/mL (≈ 4.78 µM) | 49 µg/mL (≈ 78.2 µM) | 24 µg/mL (≈ 38.3 µM) | 26 µg/mL (≈ 41.5 µM) | 21 µg/mL (≈ 33.5 µM) | C[C@H](CCCN(C)Cc1ccccc1)[C@H]1CC[C@H]2[C@@H]3[C@H](OCCN)C[C@@H]4C[C@H](OCCN)CC[C@]4(C)[C@H]3C[C@H](OCCN)[C@]12C [Compound 1] | 14 µg/mL | 2 µg/mL | 0.099 | 0.74 µg/mL | 4.4 µg/mL (≈ 7.02 µM) | > 50 µg/mL | > 36 µg/mL | > 50 µg/mL | 15 µg/mL (≈ 23.9 µM) | 38 µg/mL (≈ 60.6 µM) | > 25 µg/mL | 78 µg/mL | 0.089 | 0.84 µg/mL | –
18 µg/mL (≈ 36.3 µM) | 75 µg/mL (≈ 151 µM) | > 100 µg/mL | 85 µg/mL (≈ 171 µM) | > 100 µg/mL | C[C@]12CC[C@@H](OCCCN)C[C@H]1C[C@@H](OCCCN)[C@@H]1[C@@H]2C[C@H](OCCCN)[C@]2(C)[C@@H](O)CC[C@@H]12 [Compound 106] | – | – | 0.12 | 4.2 µg/mL | 37 µg/mL (≈ 74.6 µM) | 92 µg/mL (≈ 186 µM) | 100 µg/mL (≈ 202 µM) | – | – | 97 µg/mL (≈ 196 µM) | > 100 µg/mL | >100 µg/mL | 0.064 | 1.4 µg/mL | –
2 µg/mL (≈ 2.52 µM) | 11 µg/mL (≈ 13.8 µM) | 3 µg/mL (≈ 3.77 µM) | 5.9 µg/mL (≈ 7.42 µM) | 2.2 µg/mL (≈ 2.77 µM) | C[C@H](CCCN(C)Cc1ccccc1)[C@H]1CC[C@H]2[C@@H]3[C@H](OCCCNC(=N)N)C[C@@H]4C[C@H](OCCCNC(=N)N)CC[C@]4(C)[C@H]3C[C@H](OCCCNC(=N)N)[C@]12C [Compound 5] | 1.5 µg/mL | 1.5 µg/mL | – | – | 2.1 µg/mL (≈ 2.64 µM) | 50 µg/mL (≈ 62.9 µM) | 6.7 µg/mL (≈ 8.43 µM) | 15 µg/mL (≈ 18.9 µM) | 6 µg/mL (≈ 7.55 µM) | 9.9 µg/mL (≈ 12.5 µM) | 3.8 µg/mL (≈ 4.78 µM) | 26 µg/mL | – | – | –
2.4 µg/mL (≈ 3.95 µM) | 41 µg/mL (≈ 67.4 µM) | 23 µg/mL (≈ 37.8 µM) | 4.6 µg/mL (≈ 7.57 µM) | 86 µg/mL (≈ 141 µM) | CCCOCCC[C@@H](C)[C@H]1CC[C@H]2[C@@H]3[C@H](OCCCN)C[C@@H]4C[C@H](OCCCN)CC[C@]4(C)[C@H]3C[C@H](OCCCN)[C@]12C [Compound 112] | – | – | 0.19 | 0.81 µg/mL | 3 µg/mL (≈ 4.93 µM) | 45 µg/mL (≈ 74 µM) | 27 µg/mL (≈ 44.4 µM) | – | – | 6.4 µg/mL (≈ 10.5 µM) | 90 µg/mL (≈ 148 µM) | 5.9 µg/mL | 0.051 | 0.10 µg/mL | –

Compound | MIC [2] | MIC [3] | MIC [4] | MIC [5, 11] | MIC [6] | MBC [1] | concentration required to lower the MIC of erythromycin from 60 µg/mL to 1 µg/mL [1] | FIC [1] | concentration required for bacterial growth inhibition [1] | MBC [2] | MBC [3] | MBC [4] | MBC [5, 10] | MIC [5, 10] | MBC [5, 11] | MBC [6] | MHC [7] | FIC [8] | concentration required for bacterial growth inhibition [8] | EC50 [9]
C[C@H](CCCO)[C@H]1CC[C@H]2[C@@H]3[C@H](OCCCN)C[C@@H]4C[C@H](OCCCN)CC[C@]4(C)[C@H]3C[C@H](OCCCN)[C@]12C [Compound 10] | 4.2 µg/mL (≈ 7.42 µM) | 14 µg/mL (≈ 24.7 µM) | 47 µg/mL (≈ 83.1 µM) | 21 µg/mL (≈ 37.1 µM) | 43 µg/mL (≈ 76 µM) | – | – | 0.085 | 0.70 µg/mL | 5.8 µg/mL (≈ 10.2 µM) | 29 µg/mL (≈ 51.2 µM) | 50 µg/mL (≈ 88.4 µM) | – | 23 µg/mL (≈ 40.6 µM) | 36 µg/mL (≈ 63.6 µM) | > 17 µg/mL | 100 µg/mL | 0.063 | 0.55 µg/mL | 33 µg/mL (≈ 58.3 µM)
C[C@H](CCCN(C)Cc1ccccc1)[C@H]1CC[C@H]2[C@@H]3[C@H](OCCCN)C[C@@H]4C[C@H](OCCCN)CC[C@]4(C)[C@H]3C[C@H](OCCCN)[C@]12C [Compound 2] | 2 µg/mL (≈ 2.99 µM) | 30 µg/mL (≈ 44.8 µM) | 14 µg/mL (≈ 20.9 µM) | 11 µg/mL (≈ 16.4 µM) | 13 µg/mL (≈ 19.4 µM) | 5 µg/mL | 1 µg/mL | 0.22 | 0.80 µg/mL | 2.3 µg/mL (≈ 3.44 µM) | 42 µg/mL (≈ 62.8 µM) | 17 µg/mL (≈ 25.4 µM) | 40 µg/mL (≈ 59.8 µM) | 9 µg/mL (≈ 13.5 µM) | > 17 µg/mL | 16 µg/mL (≈ 23.9 µM) | 58 µg/mL | 0.079 | 0.39 µg/mL | 7 µg/mL (≈ 10.5 µM)
